Earlier results, collected in patent US7960134B1, “Kinase inhibition models and their uses” (ArQule, Inc., priority 2007, dated 2011).

Columns and labels:
c-Abl = c-Abl (Homo sapiens, UniProt P00519); conditions: observation cited from WO 2006/086484 A1
c-Met = c-Met (Homo sapiens, UniProt P08581); conditions: observation cited from WO 2006/086484 A1
Sequence of c-Met (P08581 25-1390): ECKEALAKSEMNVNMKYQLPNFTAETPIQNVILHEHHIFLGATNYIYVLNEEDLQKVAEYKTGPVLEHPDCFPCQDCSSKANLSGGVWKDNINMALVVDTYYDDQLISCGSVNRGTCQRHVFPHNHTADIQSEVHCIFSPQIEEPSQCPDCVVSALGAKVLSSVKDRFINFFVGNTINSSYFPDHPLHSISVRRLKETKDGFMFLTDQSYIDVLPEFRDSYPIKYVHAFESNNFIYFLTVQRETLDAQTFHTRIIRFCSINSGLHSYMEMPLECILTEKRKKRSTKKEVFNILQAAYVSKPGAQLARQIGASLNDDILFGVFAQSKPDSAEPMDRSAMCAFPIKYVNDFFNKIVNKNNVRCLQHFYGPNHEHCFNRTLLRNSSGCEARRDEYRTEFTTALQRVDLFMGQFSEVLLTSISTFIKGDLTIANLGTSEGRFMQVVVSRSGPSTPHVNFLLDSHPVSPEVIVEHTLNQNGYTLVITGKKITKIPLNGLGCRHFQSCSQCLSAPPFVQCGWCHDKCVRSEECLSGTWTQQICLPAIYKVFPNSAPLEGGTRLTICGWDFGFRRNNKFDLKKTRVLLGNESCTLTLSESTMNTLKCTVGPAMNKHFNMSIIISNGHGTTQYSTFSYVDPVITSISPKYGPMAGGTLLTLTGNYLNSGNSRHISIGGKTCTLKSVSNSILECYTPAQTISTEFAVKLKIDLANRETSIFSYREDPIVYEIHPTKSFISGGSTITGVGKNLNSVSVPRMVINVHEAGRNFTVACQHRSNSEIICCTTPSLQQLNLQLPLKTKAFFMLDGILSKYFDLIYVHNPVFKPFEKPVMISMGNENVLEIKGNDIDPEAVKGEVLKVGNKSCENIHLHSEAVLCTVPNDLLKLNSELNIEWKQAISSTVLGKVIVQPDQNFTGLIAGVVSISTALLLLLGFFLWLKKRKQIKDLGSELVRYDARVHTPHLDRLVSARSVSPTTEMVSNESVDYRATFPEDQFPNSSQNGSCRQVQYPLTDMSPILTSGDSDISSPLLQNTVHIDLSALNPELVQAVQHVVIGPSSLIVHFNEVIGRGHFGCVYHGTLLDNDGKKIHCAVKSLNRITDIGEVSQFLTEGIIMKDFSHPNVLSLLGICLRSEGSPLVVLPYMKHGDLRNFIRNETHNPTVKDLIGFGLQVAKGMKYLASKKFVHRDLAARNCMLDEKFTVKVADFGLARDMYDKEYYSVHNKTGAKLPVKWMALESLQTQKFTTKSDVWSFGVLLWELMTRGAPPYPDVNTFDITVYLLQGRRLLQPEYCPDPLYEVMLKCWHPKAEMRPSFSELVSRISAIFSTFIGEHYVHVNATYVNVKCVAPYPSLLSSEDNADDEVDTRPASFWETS

Sequence of c-Abl (P00519 whole entry): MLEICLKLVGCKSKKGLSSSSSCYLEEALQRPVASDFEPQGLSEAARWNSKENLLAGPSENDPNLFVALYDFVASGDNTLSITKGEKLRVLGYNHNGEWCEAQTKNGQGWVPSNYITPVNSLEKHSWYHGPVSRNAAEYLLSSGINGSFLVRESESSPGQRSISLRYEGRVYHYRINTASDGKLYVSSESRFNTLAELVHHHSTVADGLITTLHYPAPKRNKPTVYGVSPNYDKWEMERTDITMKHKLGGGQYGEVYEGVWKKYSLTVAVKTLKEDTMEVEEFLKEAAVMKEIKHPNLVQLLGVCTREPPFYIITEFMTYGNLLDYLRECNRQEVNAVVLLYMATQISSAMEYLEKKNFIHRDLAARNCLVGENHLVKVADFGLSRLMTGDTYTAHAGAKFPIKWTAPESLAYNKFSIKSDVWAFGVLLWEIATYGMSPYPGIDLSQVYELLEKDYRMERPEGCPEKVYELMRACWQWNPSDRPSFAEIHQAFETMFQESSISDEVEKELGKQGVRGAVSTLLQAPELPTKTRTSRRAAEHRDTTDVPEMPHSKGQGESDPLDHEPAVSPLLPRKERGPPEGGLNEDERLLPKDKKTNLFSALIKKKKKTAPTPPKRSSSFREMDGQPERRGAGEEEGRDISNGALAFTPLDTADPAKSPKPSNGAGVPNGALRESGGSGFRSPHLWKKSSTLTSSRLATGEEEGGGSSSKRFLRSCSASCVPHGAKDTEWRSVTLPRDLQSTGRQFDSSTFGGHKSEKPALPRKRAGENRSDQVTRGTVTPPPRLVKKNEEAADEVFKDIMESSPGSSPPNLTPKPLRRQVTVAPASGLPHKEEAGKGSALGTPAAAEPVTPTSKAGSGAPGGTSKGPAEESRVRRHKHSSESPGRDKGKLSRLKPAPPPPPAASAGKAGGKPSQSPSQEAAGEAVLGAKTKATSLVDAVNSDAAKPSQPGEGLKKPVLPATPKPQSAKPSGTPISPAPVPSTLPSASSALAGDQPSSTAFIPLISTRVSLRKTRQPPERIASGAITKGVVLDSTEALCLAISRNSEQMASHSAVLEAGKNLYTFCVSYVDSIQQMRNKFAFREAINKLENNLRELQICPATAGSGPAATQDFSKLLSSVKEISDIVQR

## O=C1NC(=O)[C@@H](c2cn3c4c(cccc24)CCC3)[C@@H]1c1c[nH]c2ccccc12 (single isomer, unassigned) [the selective c-Met inhibitor, (−)-trans-3-(5,6-dihydro-4H-pyrrolo[3,2,1-ij]quinolin-1-yl)-4(1H-indol-3-yl)pyrrolidine-2,5-dione]
c-Abl
  inhibition of the activity of c-Abl: does not inhibit the activity of c-Abl effectively
c-Met
  inhibition of the activity of c-Met: inhibits the activity of c-Met effectively
